US20230000813A1, “COMPOUND FOR THE TREATMENT OF BOVINE OR SWINE RESPIRATORY DISEASE” (Intervet Inc., priority 2016, published 2023)
In brackets after ≈: the same amount, converted by molar mass.

What was measured:
Test in all cases: MIC, broth-microdilution (CLSI VET01-A4)
Assay type in all cases: cell-based
[1] = tested on: Mannheimia haemolytica MH 10720 (154, BRD field isolate); conditions: Mannheimia haemolytica MH 10720; for MIC: read-out: MIC MH 10720
Procedure, shortened: (§1)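 Visual no-turbidity endpoint over twofold compound dilutions in microdilution trays, interpreted according to CLSI VET01-S3.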

[2] = tested on: Mannheimia haemolytica MH 12587 (1071, BRD field isolate, macrolide-resistance: erm+, E+); conditions: Mannheimia haemolytica MH 12587, macrolide-resistant
Procedure, shortened: as §1

[3] = tested on: Mannheimia haemolytica MH 6357 (M7/2, reference strain, cattle infection strain); conditions: Mannheimia haemolytica MH 6357; read-out: MIC MH 6357
Procedure, shortened: as §1

[4] = tested on: Mannheimia haemolytica MH 6374 (ATCC 33396, reference strain); conditions: Mannheimia haemolytica MH 6374; read-out: MIC MH 6374
Procedure, shortened: as §1

[5] = tested on: Pasteurella multocida PM 10775 (080130003051, BRD field isolate); conditions: Pasteurella multocida PM 10775; for MIC: read-out: MIC PM 10775
Procedure, shortened: as §1

[6] = tested on: Pasteurella multocida PM 12080 (IV102277-0093, BRD field isolate); conditions: Pasteurella multocida PM 12080; for MIC: read-out: MIC PM 12080
Procedure, shortened: as §1

[7] = tested on: Pasteurella multocida PM 6267 (P 2225 (L386), reference strain, mouse infection strain); conditions: Pasteurella multocida PM 6267; for MIC: read-out: MIC PM 6267
Procedure, shortened: as §1

[8] = tested on: Pasteurella multocida PM 6391 (ATCC 43137, reference strain); conditions: Pasteurella multocida PM 6391; for MIC: read-out: MIC PM 6391
Procedure, shortened: as §1

[9] = tested on: Mannheimia haemolytica MH 13065 (XB0446-6003.9, BRD field isolate)
Procedure, shortened: (§2)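 Broth microdilution per CLSI VET01-A4 using doubling dilution series of compound. MIC taken as the lowest concentration with no turbidity visible to the unaided eye, interpreted per CLSI VET01-S3.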

[10] = tested on: Mannheimia haemolytica MH 13093 (XB0472-6014.1, BRD field isolate)
Procedure, shortened: as §2

Row | Compound | MIC MH 10720 [1] | MIC MH 12587 [2] | MIC [3] | MIC [4] | MIC PM 10775 [5] | MIC PM 12080 [6] | MIC PM 6267 [7] | MIC PM 6391 [8] | MIC [9] | MIC [10] | MIC [6] | MIC [7] | MIC [8] | MIC [1] | MIC [5]
1 | CC(C)(N)C(NC(=O)c1ccc(C#Cc2ccc(CNCc3nccs3)cc2)cc1)C(=O)NO (centres unmarked) [Compound 562] | <=0.1 μM | 1.6 µM (≈ 0.764 µg/mL) | 0.8 µM (≈ 0.382 µg/mL) | 0.8 µM (≈ 0.382 µg/mL) | <=0.1 μM | <=0.1 μM | <=0.1 μM | <=0.1 μM | 0.8 µM (≈ 0.382 µg/mL) | 0.8 µM (≈ 0.382 µg/mL) | – | – | – | – | –
2 | CCC(C)C(NC(=O)c1ccc(C#Cc2ccc(CNCc3cccnc3)cc2)cc1)C(=O)NO (centres unmarked) [Compound 299] | <=0.1 μM | 1.6 µM (≈ 0.753 µg/mL) | 0.4 µM (≈ 0.188 µg/mL) | 0.8 µM (≈ 0.376 µg/mL) | <=0.1 μM | – | – | – | 0.8 µM (≈ 0.376 µg/mL) | 0.8 µM (≈ 0.376 µg/mL) | 0.4 µM (≈ 0.188 µg/mL) | 0.2 µM (≈ 0.0941 µg/mL) | 1.6 µM (≈ 0.753 µg/mL) | – | –
3 | CC(C)C(NC(=O)c1ccc(C#Cc2ccc(CNCc3cccnc3)cc2)cc1)C(=O)NO (centres unmarked) [Compound 287] | <=0.1 μM | 0.8 µM (≈ 0.365 µg/mL) | 0.4 µM (≈ 0.183 µg/mL) | 0.4 µM (≈ 0.183 µg/mL) | <=0.1 μM | – | <=0.1 μM | – | 0.8 µM (≈ 0.365 µg/mL) | 0.8 µM (≈ 0.365 µg/mL) | 0.2 µM (≈ 0.0913 µg/mL) | – | 0.4 µM (≈ 0.183 µg/mL) | – | –
4 | C=CCNCc1ccc(C#Cc2ccc(C(=O)NC(C(=O)NO)C(C)(C)SC)cc2)cc1 (centres unmarked) [C. 582] | <=0.1 μM | 1.6 µM (≈ 0.723 µg/mL) | 0.8 µM (≈ 0.361 µg/mL) | 0.8 µM (≈ 0.361 µg/mL) | <=0.1 μM | – | <=0.1 μM | – | 0.8 µM (≈ 0.361 µg/mL) | 0.8 µM (≈ 0.361 µg/mL) | 0.4 µM (≈ 0.181 µg/mL) | – | 0.4 µM (≈ 0.181 µg/mL) | – | –
5 | COc1ccc(CNCc2ccc(C#Cc3ccc(C(=O)N[C@H](C(=O)NO)[C@@H](C)O)cc3)s2)cc1 [Compound 306] | <=0.1 μM | 0.8 µM (≈ 0.395 µg/mL) | 0.4 µM (≈ 0.197 µg/mL) | 0.4 µM (≈ 0.197 µg/mL) | <=0.1 μM | – | <=0.1 μM | – | 0.4 µM (≈ 0.197 µg/mL) | 0.8 µM (≈ 0.395 µg/mL) | 0.2 µM (≈ 0.0987 µg/mL) | – | 0.2 µM (≈ 0.0987 µg/mL) | – | –
6 | CCC(C)C(NC(=O)c1ccc(C#Cc2ccc(CNCc3cccs3)cc2)cc1)C(=O)NO (centres unmarked) [Compound 302] | – | 1.6 µM (≈ 0.761 µg/mL) | 0.4 µM (≈ 0.19 µg/mL) | 1.6 µM (≈ 0.761 µg/mL) | <=0.1 μM | – | – | – | 0.8 µM (≈ 0.38 µg/mL) | 0.8 µM (≈ 0.38 µg/mL) | 0.2 µM (≈ 0.0951 µg/mL) | 0.2 µM (≈ 0.0951 µg/mL) | 0.8 µM (≈ 0.38 µg/mL) | 0.2 µM (≈ 0.0951 µg/mL) | –
7 | C[C@@H](O)[C@H](NC(=O)c1ccc(C#Cc2ccc(CNCC#N)cc2)cc1)C(=O)NO [C. 360] | – | 0.8 µM (≈ 0.325 µg/mL) | 0.4 µM (≈ 0.163 µg/mL) | 0.4 µM (≈ 0.163 µg/mL) | <=0.1 μM | <=0.1 μM | <=0.1 μM | <=0.1 μM | 0.4 µM (≈ 0.163 µg/mL) | 0.8 µM (≈ 0.325 µg/mL) | – | – | – | 0.2 µM (≈ 0.0813 µg/mL) | –
8 | CC(C)(N)C(NC(=O)c1ccc(C#Cc2ccc(CNCc3ccnc(Cl)c3)cc2)cc1)C(=O)NO (racemic) [Compound 313] | – | 1.6 µM (≈ 0.81 µg/mL) | 0.8 µM (≈ 0.405 µg/mL) | 0.8 µM (≈ 0.405 µg/mL) | – | <=0.1 μM | <=0.1 μM | <=0.1 μM | 1.6 µM (≈ 0.81 µg/mL) | 1.6 µM (≈ 0.81 µg/mL) | – | – | – | 0.4 µM (≈ 0.202 µg/mL) | 0.2 µM (≈ 0.101 µg/mL)
9 | CCC(C)C(NC(=O)c1ccc(C#Cc2ccc(CNCc3ccco3)cc2)cc1)C(=O)NO (centres unmarked) [Compound 301] | <=0.1 μM | 1.6 µM (≈ 0.735 µg/mL) | 0.4 µM (≈ 0.184 µg/mL) | 0.8 µM (≈ 0.368 µg/mL) | <=0.1 μM | – | – | – | 0.8 µM (≈ 0.368 µg/mL) | 0.8 µM (≈ 0.368 µg/mL) | 0.4 µM (≈ 0.184 µg/mL) | 0.4 µM (≈ 0.184 µg/mL) | 0.8 µM (≈ 0.368 µg/mL) | – | –
10 | CC(C)(N)C(NC(=O)c1ccc(C#Cc2ccc(CNCc3ccc(F)cc3)s2)cc1)C(=O)NO (racemic) [Compound 637] | <=0.1 μM | 1.6 µM (≈ 0.791 µg/mL) | 0.8 µM (≈ 0.396 µg/mL) | 0.4 µM (≈ 0.198 µg/mL) | – | – | <=0.1 μM | – | 1.6 µM (≈ 0.791 µg/mL) | 0.8 µM (≈ 0.396 µg/mL) | 0.2 µM (≈ 0.0989 µg/mL) | – | 0.4 µM (≈ 0.198 µg/mL) | – | 0.2 µM (≈ 0.0989 µg/mL)
11 | CC(C)(O)[C@H](NC(=O)c1ccc(C#Cc2ccc(CNCc3nccs3)s2)cc1)C(=O)NO [Compound 735] | <=0.1 μM | 0.4 µM (≈ 0.194 µg/mL) | 0.4 µM (≈ 0.194 µg/mL) | 0.2 µM (≈ 0.0969 µg/mL) | – | <=0.1 μM | <=0.1 μM | <=0.1 μM | 0.2 µM (≈ 0.0969 µg/mL) | 0.4 µM (≈ 0.194 µg/mL) | – | – | – | – | 0.2 µM (≈ 0.0969 µg/mL)
12 | CSCCNCc1ccc(C#Cc2ccc(C(=O)NC(C(=O)NO)C(C)(C)N)cc2)s1 (racemic) [Compound 635] | <=0.1 μM | 1.6 µM (≈ 0.737 µg/mL) | 1.6 µM (≈ 0.737 µg/mL) | 0.4 µM (≈ 0.184 µg/mL) | <=0.1 μM | <=0.1 μM | <=0.1 μM | – | 0.8 µM (≈ 0.369 µg/mL) | 0.8 µM (≈ 0.369 µg/mL) | – | – | 0.4 µM (≈ 0.184 µg/mL) | – | –
13 | COc1ccc(CNCc2ccc(C#Cc3ccc(C(=O)NC(C(=O)NO)C(C)(C)SC)cc3)cc2)cc1 (centres unmarked) [Compound 586] | – | 1.6 µM (≈ 0.851 µg/mL) | 1.6 µM (≈ 0.851 µg/mL) | 1.6 µM (≈ 0.851 µg/mL) | – | – | – | – | 1.6 µM (≈ 0.851 µg/mL) | 1.6 µM (≈ 0.851 µg/mL) | 0.4 µM (≈ 0.213 µg/mL) | 0.2 µM (≈ 0.106 µg/mL) | 0.8 µM (≈ 0.425 µg/mL) | 0.4 µM (≈ 0.213 µg/mL) | 0.2 µM (≈ 0.106 µg/mL)
14 | CSC(C)(C)C(NC(=O)c1ccc(C#Cc2ccc(CNCc3ccccc3)cc2)cc1)C(=O)NO (centres unmarked) [Compound 585] | – | 1.6 µM (≈ 0.803 µg/mL) | 0.8 µM (≈ 0.401 µg/mL) | 1.6 µM (≈ 0.803 µg/mL) | <=0.1 μM | – | – | – | 0.8 µM (≈ 0.401 µg/mL) | 0.8 µM (≈ 0.401 µg/mL) | 0.4 µM (≈ 0.201 µg/mL) | 0.2 µM (≈ 0.1 µg/mL) | 0.4 µM (≈ 0.201 µg/mL) | 0.2 µM (≈ 0.1 µg/mL) | –
15 | CC(C)(N)C(NC(=O)c1ccc(C#Cc2ccc(CN3CC=CC3)s2)cc1)C(=O)NO (racemic) [Compound 649] | <=0.1 μM | 0.8 µM (≈ 0.351 µg/mL) | 0.8 µM (≈ 0.351 µg/mL) | 0.4 µM (≈ 0.175 µg/mL) | <=0.1 μM | – | <=0.1 μM | – | 0.4 µM (≈ 0.175 µg/mL) | 0.8 µM (≈ 0.351 µg/mL) | 0.2 µM (≈ 0.0877 µg/mL) | – | 0.2 µM (≈ 0.0877 µg/mL) | – | –
16 | CSC(C)(C)[C@H](NC(=O)c1ccc(C#Cc2ccc(CNCc3ccncc3)s2)cc1)C(=O)NO [Compound 740] | – | 1.6 µM (≈ 0.814 µg/mL) | 0.8 µM (≈ 0.407 µg/mL) | 0.8 µM (≈ 0.407 µg/mL) | <=0.1 μM | <=0.1 μM | – | – | 0.8 µM (≈ 0.407 µg/mL) | 0.8 µM (≈ 0.407 µg/mL) | – | 0.4 µM (≈ 0.203 µg/mL) | 0.4 µM (≈ 0.203 µg/mL) | 0.2 µM (≈ 0.102 µg/mL) | –
17 | C[C@@H](O)[C@H](NC(=O)c1ccc(C#Cc2ccc(CNCc3ccco3)cc2)cc1)C(=O)NO [C. 259] | <=0.1 μM | 0.4 µM (≈ 0.179 µg/mL) | 0.2 µM (≈ 0.0895 µg/mL) | 0.2 µM (≈ 0.0895 µg/mL) | <=0.1 μM | <=0.1 μM | <=0.1 μM | <=0.1 μM | 0.4 µM (≈ 0.179 µg/mL) | 0.4 µM (≈ 0.179 µg/mL) | – | – | – | – | –
